Results published in patent US11596639B2, “Substituted indole Mcl-1 inhibitors” (Vanderbilt University, priority 2016, dated 2023).
Where two headings read alike, the source gives them in different places.

Experiments:
Mcl-1 = Mcl-1 (Homo sapiens (Human), UniProt Q07820); assay: Fluorescence polarization anisotropy (FPA) competition assay, FITC-Bak or FITC-Bim BH3 peptide; format: binding; settings: read-out: Ki for Inhibition of Mcl-1 by FPA assay
[1] = tested on: H929 human cancer cell lines; assay: Cellular viability / proliferation (Cell TiterGlo, 72 h); format: cell-based
Summary of the method: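 H929 cells plated at 1,000/well in 10% FBS medium received a 2-fold serial compound dilution (top 50 μM, DMSO <1%) 24 h later. After 72 h, viability was read by CellTiter-Glo luminescence. IC50 came from a four-parameter fit.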

[2] = Homo sapiens, NCI-H929, 72 h, read-out: GI50 on cellular proliferation of H929 human cancer cell lines, H929 cells, 72 h, Cell TiterGlo, 10% FBS
[3] = H929 cells, 72 h, Cell TiterGlo, 10% FBS, read-out: GI50 on cellular proliferation of H929 human cancer cell lines

Mcl-1, sequence (Q07820 172-327): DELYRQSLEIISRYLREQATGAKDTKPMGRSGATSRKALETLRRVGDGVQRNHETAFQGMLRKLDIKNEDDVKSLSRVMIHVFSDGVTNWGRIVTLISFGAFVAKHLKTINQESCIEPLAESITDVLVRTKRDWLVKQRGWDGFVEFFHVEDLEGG

Structure (SMILES)	Ki (Mcl-1) [µM]	GI50 [1, 2] [µM]	GI50 [1, 3] [µM]	GI50 ([1]; read-out: GI50 on cellular proliferation of H929 human cancer cell lines, H929 cells, 72 h, Cell TiterGlo, 10% FBS) [µM]
CCCn1cc(N2C[C@@H](C)n3c(c(CCCOc4cc(C)c(Cl)c(C)c4)c4ccc(Cl)c(-c5c(C)nn(C)c5C)c43)C2=O)c2cc(C(=O)O)ccc21 [Example 158, (R)-3-(7-Chloro-10-(3-(4-chloro-3,5-dimethylphenoxy)propyl)-4-methyl-1-oxo-6-(1,3,5-trimethyl-1H-pyrazol-4-yl)-3,4-dihydropyrazino[1,2-a]indol-2(1H)-yl)-1-propyl-1H-indole-5-carboxylic acid]	< 0.001	0.48	–	–
Cc1cc(OCCCc2c3n(c4c(-c5c(C)nn(C)c5C)c(Cl)ccc24)CCCN(c2cccc4c(C(=O)O)nn(C)c24)C3=O)cc(C)c1Cl [Example 13, 7-[8-Chloro-11-[3-(4-chloro-3,5-dimethyl-phenoxy)propyl]-1-oxo-7-(1,3,5-trimethylpyrazol-4-yl)-4,5-dihydro-3H-[1,4]diazepino[1,2-a]indol-2-yl]-1-methyl-indazole-3-carboxylic acid]	< 0.001	4.5	–	–
Cc1nn(C)c(C)c1-c1c(Cl)ccc2c(CCCOc3ccc(Cl)cc3)c3n(c12)[C@H](C)CN(c1cn(C)c2ccc(C(=O)O)cc12)C3=O [Example 409, (R)-3-(7-Chloro-10-(3-(4-chlorophenoxy)propyl)-4-methyl-1-oxo-6-(1,3,5-trimethyl-1H-pyrazol-4-yl)-3,4-dihydropyrazino[1,2-a]indol-2(1H)-yl)-1-methyl-1H-indole-5-carboxylic acid]	0.0013	2.8	–	–
Cc1cccnc1Cn1c(C(=O)O)cc2cccc(N3C[C@@H](C)n4c(c(CCCOc5cc(C)c(Cl)c(C)c5)c5ccc(Cl)c(-c6c(C)nn(C)c6C)c54)C3=O)c21 [Example 387, (R)-7-(7-Chloro-10-(3-(4-chloro-3,5-dimethylphenoxy)propyl)-4-methyl-1-oxo-6-(1,3,5-trimethyl-1H-pyrazol-4-yl)-3,4-dihydropyrazino[1,2-a]indol-2(1H)-yl)-1-((3-methylpyridin-2-yl)methyl)-1H-indole-2-carboxylic acid]	0.0021	3.6	–	–
Cc1cc(OCCCc2c3n(c4c(-c5c(C)nn(C)c5C)c(Cl)ccc24)CCCN(c2cc(C(=O)O)cc4nn(C)cc24)C3=O)cc(C)c1Cl [Example 36, 4-[8-Chloro-11-[3-(4-chloro-3,5-dimethyl-phenoxy)propyl]-1-oxo-7-(1,3,5-trimethylpyrazol-4-yl)-4,5-dihydro-3H-[1,4]diazepino[1,2-a]indol-2-yl]-2-methyl-indazole-6-carboxylic acid]	< 0.001	2.6	–	–
Cc1cc(OCCCc2c3n(c4c(-c5c(C)nn(C)c5C)c(Cl)ccc24)[C@H](C)CN(c2ccc4c(C(=O)O)cccc4n2)C3=O)cc(C)c1Cl [Example 157, (R)-2-(7-Chloro-10-(3-(4-chloro-3,5-dimethylphenoxy)propyl)-4-methyl-1-oxo-6-(1,3,5-trimethyl-1H-pyrazol-4-yl)-3,4-dihydropyrazino[1,2-a]indol-2(1H)-yl)quinoline-5-carboxylic acid]	0.0025	6.4	–	–
CC[C@@H]1Cn2c(c(CCCOc3cc(C)c(Cl)c(C)c3)c3ccc(Cl)c(-c4c(C)nn(C)c4C)c32)C(=O)N1c1cccc(C(=O)O)c1 [Example 21, (R)-3-(7-chloro-10-(3-(4-chloro-3,5-dimethylphenoxy)propyl)-3-ethyl-t-oxo-6-(1,3,5-trimethyl-1H-pyrazol-4-yl)-3,4-dihydropyrazino[1,2-a]indol-2(1H)-yl)benzoic acid]	0.0023	–	4.9	–
Cc1cc(OCCCc2c3n(c4c(-c5c(C)nn(C)c5C)c(Cl)ccc24)[C@H](C)CN(c2cc4cc(C(=O)O)ccc4n2C)C3=O)cc(C)c1Cl [Example 174, 2-[(4R)-7-chloro-10-[3-(4-chloro-3,5-dimethyl-phenoxy)propyl]-4-methyl-1-oxo-6-(1,3,5-trimethylpyrazol-4-yl)-3,4-dihydropyrazino[1,2-a]indol-2-yl]-1-methyl-indole-5-carboxylic acid]	0.0042	6.3	–	–
Cc1cc(OCCCc2c3n(c4c(-c5c(C)nn(C)c5C)c(Cl)ccc24)[C@H](C)CN(c2cn(C)c4c(C#N)cccc24)C3=O)cc(C)c1Cl [Example 209, (R)-3-(7-Chloro-10-(3-(4-chloro-3,5-dimethylphenoxy)propyl)-4-methyl-1-oxo-6-(1,3,5-trimethyl-1H-pyrazol-4-yl)-3,4-dihydropyrazino[1,2-a]indol-2(1H)-yl)-1-methyl-1H-indole-7-carbonitrile]	0.0012	3.5	–	–
Cc1cc(OCCCc2c3n(c4c(-c5c(C)nn(C)c5C)c(Cl)ccc24)[C@H](C)CN(c2nn(C)c4cc(C(=O)O)ccc24)C3=O)cc(C)c1Cl [Example 48, (R)-3-(7-chloro-10-(3-(4-chloro-3,5-dimethylphenoxy)propyl)-4-methyl-1-oxo-6-(1,3,5-trimethyl-1H-pyrazol-4-yl)-3,4-dihydropyrazino[1,2-a]indol-2(1H)-yl)-1-methyl-1H-indazole-6-carboxylic acid]	< 0.001	0.8	–	–
Cc1cc(OCCCc2c3n(c4c(-c5c(C)nn(C)c5C)c(Cl)ccc24)[C@H](C)CN(c2cccc4cc(C(=O)O)[nH]c24)C3=O)cc(C)c1Cl [Example 233, 7-[(4R)-7-chloro-10-[3-(4-chloro-3,5-dimethyl-phenoxy)propyl]-4-methyl-1-oxo-6-(1,3,5-trimethylpyrazol-4-yl)-3,4-dihydropyrazino[1,2-a]indol-2-yl]-1H-indole-2-carboxylic acid]	< 0.001	1.4	–	–
Cc1cc(OCCCc2c3n(c4c(-c5c(C)ncnc5C)c(Cl)ccc24)CCCN(c2cn(C)c4ccc(C(=O)O)cc24)C3=O)cc(C)c1Cl [Example 156, 3-[8-Chloro-11-[3-(4-chloro-3,5-dimethyl-phenoxy)propyl]-7-(4,6-dimethylpyrimidin-5-yl)-1-oxo-4,5-dihydro-3H-[1,4]diazepino[1,2-a]indol-2-yl]-1-methyl-indole-5-carboxylic acid]	< 0.001	0.26	–	–
Cc1cc(OCCCc2c3n(c4c(-c5c(C)nn(C)c5C)c(Cl)ccc24)[C@H](C)CN(c2ccnc4ccc(-c5nnn(C)n5)cc24)C3=O)cc(C)c1Cl [Example 425, (R)-7-Chloro-10-(3-(4-chloro-3,5-dimethylphenoxy)propyl)-4-methyl-2-(6-(2-methyl-2H-tetrazol-5-yl)quinolin-4-yl)-6-(1,3,5-trimethyl-1H-pyrazol-4-yl)-3,4-dihydropyrazino[1,2-a]indol-1(2H)-one]	0.0018	1.4	–	–
Cc1cc(OCCCc2c3n(c4c(-c5c(C)nn(C)c5C)c(Cl)ccc24)[C@H](C)CN(c2cn(C)c4cc(F)c(C(=O)O)cc24)C3=O)cc(C)c1Cl [Example 355, (M, R)-3-(7-Chloro-10-(3-(4-chloro-3,5-dimethylphenoxy)propyl)-4-methyl-1-oxo-6-(1,3,5-trimethyl-1H-pyrazol-4-yl)-3,4-dihydropyrazino[1,2-a]indol-2(1H)-yl)-6-fluoro-1-methyl-1H-indole-5-carboxylic acid]	0.001	–	0.73	–
Cc1cc(OCCCc2c3n(c4c(-c5c(C)nn(C)c5C)c(Cl)ccc24)[C@H](C)CN(c2cn(C)c4ccc(C(=O)N(C)Cc5cccnc5)cc24)C3=O)cc(C)c1Cl [Example 282, 3-[(4R)-7-chloro-10-[3-(4-chloro-3,5-dimethyl-phenoxy)propyl]-4-methyl-1-oxo-6-(1,3,5-trimethylpyrazol-4-yl)-3,4-dihydropyrazino[1,2-a]indol-2-yl]-N,1-dimethyl-N-(3-pyridylmethyl)indole-5-carboxamide]	0.0084	2.4	–	–
Cc1cc(OCCCc2c3n(c4c(-c5c(C)nn(C)c5C)c(Cl)ccc24)[C@H](C)CN(c2cccc4cc(C(=O)O)n(C(C)c5ccccn5)c24)C3=O)cc(C)c1Cl (stereo partly drawn) [Example 386, 7-((R)-7-Chloro-10-(3-(4-chloro-3,5-dimethylphenoxy)propyl)-4-methyl-1-oxo-6-(1,3,5-trimethyl-1H-pyrazol-4-yl)-3,4-dihydropyrazino[1,2-a]indol-2(1H)-yl)-1-(1-(pyridin-2-yl)ethyl)-1H-indole-2-carboxylic acid]	0.0032	3.1	–	–
Cc1cc(OCCCc2c3n(c4c(-c5c(C)nn(C)c5C)c(Cl)ccc24)[C@H](C)CN(c2coc4ccccc24)C3=O)cc(C)c1Cl (single isomer, unassigned) [Example 246]	0.0086	–	–	5.3
COc1ccnc(Cn2c(C(=O)O)cc3cccc(N4C[C@@H](C)n5c(c(CCCOc6cc(C)c(Cl)c(C)c6)c6ccc(Cl)c(-c7c(C)nn(C)c7C)c65)C4=O)c32)c1 [Example 378, (R)-7-(7-Chloro-10-(3-(4-chloro-3,5-dimethylphenoxy)propyl)-4-methyl-1-oxo-6-(1,3,5-trimethyl-1H-pyrazol-4-yl)-3,4-dihydropyrazino[1,2-a]indol-2(1H)-yl)-1-((4-methoxypyridin-2-yl)methyl)-1H-indole-2-carboxylic acid]	0.0019	0.41	–	–
Cc1cc(OCCCc2c3n(c4c(-c5c(C)nn(C)c5C)c(Cl)ccc24)CCCN(c2ccc4cnoc4c2)C3=O)cc(C)c1Cl [Example 64, 2-(1,2-benzoxazol-6-yl)-8-chloro-11-[3-(4-chloro-3,5-dimethyl-phenoxy)propyl]-7-(1,3,5-trimethylpyrazol-4-yl)-4,5-dihydro-3H-[1,4]diazepino[1,2-a]indol-1-one]	0.0048	5.6	–	–
